The values that follow come from ChEMBL document CHEMBL1250543, “Potential application of thymidylate kinase in nucleoside analogue activation in Plasmodium falciparum” (Bioorg Med Chem, 2010).

The subject of assay [1] is Plasmodium falciparum. Nature of the assay: Antimalarial activity against Plasmodium falciparum 3D7 after 48 hrs by SYBR green assay. Conditions: 3D7, 48 h. The assay is classed as functional, organism-based.
In assay [2] the test system is Plasmodium falciparum. The assay can be described thus: Antimalarial activity against Plasmodium falciparum 3D7 at 100 uM by SYBR green assay. The assay is classed as functional. Conditions: read-out: GI.

pEC50: −log10 of the molar value.

As a reminder, the pEC50 is the negative decadic logarithm of the EC50, by convention in mol/L. `CCOC(=O)[C@H](NP(=O)(OC[C@H]1O[C@@H](n2cc(C)c(=O)[nH]c2=O)C[C@@H]1N=[N+]=[N-])Oc1ccccc1)C(C)C` (stereo partly specified) showed a pEC50 in the assay with Plasmodium falciparum [1] of 4.10. The inhibition of growth at 100 µM in the assay on Plasmodium falciparum [2] amounted to 69%.

`CCOC(=O)[C@H](NP(=O)(OC[C@H]1O[C@@H](n2cnc3c(=O)[nH]c(N)nc32)C[C@@H]1N=[N+]=[N-])Oc1ccccc1)C(C)C` (stereo partly specified): in the assay on Plasmodium falciparum [1], the pEC50 is 4.18. Moreover, the inhibition of growth at 100 µM in the assay with Plasmodium falciparum [2] was determined as 80%.

In the case of `CCOC(=O)[C@H](NP(=O)(OC[C@H]1O[C@H](n2cc(C)c(=O)[nH]c2=O)C[C@@H]1N=[N+]=[N-])Oc1ccccc1)C(C)C` (stereo partly specified), the negative-log EC50 (pEC50) in the assay on Plasmodium falciparum [1] is 4.17. Further, the inhibition of growth at 100 µM in the assay with Plasmodium falciparum [2] turned out to be 78%.

Molecule `COC(=O)[C@@H](C)NP(=O)(OC[C@H]1O[C@@H](n2cc(C)c(=O)[nH]c2=O)C[C@@H]1N=[N+]=[N-])Oc1ccccc1` (stereo partly specified) had a pEC50 in the assay on Plasmodium falciparum [1] of 3.92. Moreover, the inhibition of growth at 100 µM in the assay with Plasmodium falciparum [2] came to 35%.

In the case of `Cc1cn([C@@H]2C[C@H](N=[N+]=[N-])[C@@H](CO)O2)c(=O)[nH]c1=O`, in the assay with Plasmodium falciparum [1], the negative logarithm of the EC50 (pEC50) is less than 4.00. Further, in the assay on Plasmodium falciparum [2], the inhibition of growth at 100 µM is 0%.

Turning to `Cc1cn([C@H]2C[C@H](N=[N+]=[N-])[C@@H](CO)O2)c(=O)[nH]c1=O` [ZIDOVUDINE], the pEC50 in the assay with Plasmodium falciparum [1] was less than 4.00. For the same molecule, in the assay with Plasmodium falciparum [2], the inhibition of growth at 100 µM was determined as 0%.

In the case of `CCOC(=O)[C@H](NP(=O)(OC[C@@H]1C=C[C@H](n2cc(C)c(=O)[nH]c2=O)O1)Oc1ccccc1)C(C)C` (stereo partly specified), the pEC50 in the assay on Plasmodium falciparum [1] is less than 4.00. Besides, the inhibition of growth at 100 µM in the assay on Plasmodium falciparum [2] came out at 18%.

On to `COC(=O)[C@@H](C)NP(=O)(OC[C@@H]1C=C[C@H](n2cc(C)c(=O)[nH]c2=O)O1)Oc1ccccc1` (stereo partly specified), for which the pEC50 with Plasmodium falciparum [1] is less than 4.00. Further, the inhibition of growth at 100 µM in the assay with Plasmodium falciparum [2] came out at 9%.
